Earlier results in paper PMC3019532 (Current radiopharmaceuticals, 2010).

How the values were obtained:
[1] = rat, in vivo; cited from earlier work
[2] = tested on: CA20948 rat pancreatic tumor cells; conditions: 1 h of incubation with 1 × 10^5 CA20948 cells; cited from earlier work

Substance: [^177Lu-DOTA^0,Tyr^3]octreotate [[^177Lu]DOTA-TATE]
- metabolism, form present in urine [1]: predominantly intact form
- dose internalized [2]: about 0.03%
